In data set [1] the test system is Mycobacterium tuberculosis H37Rv. The data set can be described thus: Minimum inhibitory concentration (MIC90) against Mycobacterium tuberculosis H37Rv, Middlebrook 7H9, 96-well plate, 15 days. The conditions noted are these: Mycobacterium tuberculosis H37Rv, 15 days of incubation, 90% inhibition of growth, visual reading. It counts as cell-based.
Data set [2] deals with CYP2D6. It counts as in vitro ADME, mouse. The protocol:
(§1) This example was to detect the CYP450 metabolic enzyme phenotype of the deuterated compound YF027 and its non-deuterated control compound A (using a CYP450 enzyme metabolic phenotype research kit (recombinant enzymatic method/7 enzymes)-mouse liver microsome test).
(§2) • a. The test compound was prepared into a 40 mM stock solution for later use. 2.5 µL of the stock solution was taken and diluted with DMSO to a test compound concentration of 200 µM, and the compound at this concentration was used in subsequent tests. • b. The working solution concentration of the mixed positive substrates, phenacetin and testosterone, was 200 µM.
(§3) 1) The components of the kit were thawed in an ice bath. The mixture was well mixed by vortexing and then placed on ice for later use. 2) In addition to the microsomes, the other components of the incubation systems were mixed according to the ratios and well mixed by pipetting, and the ratios of the incubation systems are shown below; Table 6. Incubation system of positive control group
(§4) The inhibitors were quinidine, naphthoflavone, pilocarpine, sodium diethyldithiocarbamate, ticlopidine, ketoconazole, and sulfaphenazole, which corresponded to the inhibition of CYP450 enzymes CYP2D6, CYP1A2, CYP2A6, CYP2E1, CYP2C19, CYP3A4, and CYP2C9, respectively. Table 9. Incubation system of negative control group
(§5) 3) Except for the negative control group (Table 9), 3.125 µL of liver microsomes was added to each of the above incubation systems to prepare 125 µL of reaction solution. The reaction solutions were well mixed by vortexing, and then placed in a water bath at 37 °C to initiate the reaction. A timer was set. 4) At time points of 0 min and 90 min, 50 µL of reaction solution was taken, and a pre-cooled acetonitrile solution was added to the reaction solution. The mixture was quickly well mixed by vortexing to stop the reaction. 5) Mass spectrometry detection pretreatment of reaction solution
(§6) The reaction solution was cryopreserved in a refrigerator at -80 °C overnight and then centrifuged for mass spectrometry detection.
(§7) The detection values after 90 min of incubation were processed as ratios relative to the 0-min detection values to determine the metabolic rate of the compounds in different experimental groups after 90 min. The metabolic inhibition rate was then calculated using the formula: Inhibition rate (%) = (1 - metabolic rate of sample with inhibitor/metabolic rate of sample without inhibitor) × 100%, as shown in Table 10 below. […] The metabolic inhibition rate reflects the effect on the metabolic elimination of the drug after adding different selective inhibitors. Therefore, when the metabolic inhibition rate of a specific enzyme is ≥ 25%, the contribution of the specific enzyme to the clearance of the drug under study can be inferred to be ≥ 25% based on the results of the in vitro metabolism study.

The subject of data set [3] is CYP2A6. It is filed as in vitro ADME, mouse. The protocol: as §1, §2, §3, §4, §5, §6, §7
Data set [4] relates to CYP2C19. It is filed as in vitro ADME, mouse. The protocol:
as §1, §2, §3, §4, §5, §6, §7

Data set [5] deals with CYP2C9. It is filed as in vitro ADME, mouse. The protocol:
as §1, §2, §3, §4, §5, §6, §7

The test system of data set [6] is CYP3A4. It counts as in vitro ADME, mouse. The protocol: as §1, §2, §3, §4, §5, §6, §7
Data set [7] can be described thus: 28-day repeat-dose toxicity study in mice. It is filed as in vivo, Balb/c mice. The protocol:
Administration groups of the compound YF027 of the present disclosure and its non-deuterated control compound A were set for a 28-day repeat-dose toxicity study in mice. Each compound was administered to 10 Balb/c mice (5 females and 5 males, purchased from Beijing Vital River Laboratory Animal Technology Co., Ltd.) by intragastric administration. The administration was performed once daily for 6 consecutive days a week for 4 consecutive weeks, and an 8% Tween 80 vehicle control group (10 Balb/c mice, 5 females and 5 males) was set for administration at the same volume using the same method. Table 12. Administration information of repeat-dose toxicity assay
During the administration period, the mice were observed every day. The body weight, appearance signs, behavior and activity, fecal traits, and local reactions at the site of administration were recorded. After the end of the administration, the gross anatomy was performed on the mice in the administration group and the control group. The serum of the mice was collected, and the heart, liver, spleen, kidney, lung, and brain tissues and organs were weighed to calculate organ coefficients. The tissue samples of all groups were subjected to histopathological detection, and the serum samples were analyzed for biochemical parameters of liver and kidney functions. The serum biochemical parameters included: alanine aminotransferase (ALT), aspartate aminotransferase (AST), alkaline phosphatase (ALP), urea (UREA), creatinine (CREA), total protein (TP), and albumin (ALB). Statistical analysis was performed to evaluate potential toxic effects of the compounds.

The structures appear in SMILES notation. Where only a bound is given, the exact number is not on record here.

`Cl.[2H]C1([2H])CCCC([2H])([2H])N1C([2H])([2H])c1c(O)cc(C(C)(C)C)c2oc3c4ccc(O)cc4oc(=O)c3c12` [YF027, 10-(tert-Butyl)-3,8-dihydroxy-7-((piperidin-1-yl-2,2,6,6-d4)methyl-d2)-6H-benzofuran[3,2-c]chromen-6-one hydrochloride] registered an MIC90 in data set [1] of no more than 3.9 ng/mL. For the same compound, the Inhibition rate is reported as -1.3% in data set [2]; 14.0% in data set [3]; -5.7% in data set [4]; 3.7% in data set [5]; 16.5% in data set [6]. Further, the “toxic response after repeated administration” value in data set [7] (100 mg/kg for 28 consecutive days, mice) is “did not produce a significant toxic response”. Besides, the “mortality during the administration period” value in data set [7] (100 mg/kg intragastric, once daily, 6 days a week, 4 weeks, Balb/c mice) is recorded as “no mice died”. In addition, the “toxicity compared with the non-deuterated compound A” value in data set [7] (same dosing conditions, 100 mg/kg, 28 days, mice) is on record as “no increased toxicity was observed”.

In general, MIC90 refers to the lowest concentration that inhibits either 90% of growth or 90% of the strains tested, depending on the study. A low value points to greater potency.

The record behind these values is patent publication EP4775586A1, “DEUTERATED TETRACYCLIC DERIVATIVE AND USE THEREOF” (priority 2023, dated 2025).
